Measured values reported in ChEMBL document CHEMBL5244277, “A review upon medicinal perspective and designing rationale of DPP-4 inhibitors” (Bioorg Med Chem, 2021).
Converted amounts (≈) assume the structure as drawn. Values belong to the compound of their own block, whether it stands above or below them.

Legend:
[1] = Bioavailability in rat; type: ADME, organism-based; conditions: in vivo
Dipeptidyl peptidase 4 [2] = biological target: T1, Dipeptidyl peptidase 4 (Homo sapiens, UniProt P27487)
Target sequence in this assay (P27487 whole entry, looked up): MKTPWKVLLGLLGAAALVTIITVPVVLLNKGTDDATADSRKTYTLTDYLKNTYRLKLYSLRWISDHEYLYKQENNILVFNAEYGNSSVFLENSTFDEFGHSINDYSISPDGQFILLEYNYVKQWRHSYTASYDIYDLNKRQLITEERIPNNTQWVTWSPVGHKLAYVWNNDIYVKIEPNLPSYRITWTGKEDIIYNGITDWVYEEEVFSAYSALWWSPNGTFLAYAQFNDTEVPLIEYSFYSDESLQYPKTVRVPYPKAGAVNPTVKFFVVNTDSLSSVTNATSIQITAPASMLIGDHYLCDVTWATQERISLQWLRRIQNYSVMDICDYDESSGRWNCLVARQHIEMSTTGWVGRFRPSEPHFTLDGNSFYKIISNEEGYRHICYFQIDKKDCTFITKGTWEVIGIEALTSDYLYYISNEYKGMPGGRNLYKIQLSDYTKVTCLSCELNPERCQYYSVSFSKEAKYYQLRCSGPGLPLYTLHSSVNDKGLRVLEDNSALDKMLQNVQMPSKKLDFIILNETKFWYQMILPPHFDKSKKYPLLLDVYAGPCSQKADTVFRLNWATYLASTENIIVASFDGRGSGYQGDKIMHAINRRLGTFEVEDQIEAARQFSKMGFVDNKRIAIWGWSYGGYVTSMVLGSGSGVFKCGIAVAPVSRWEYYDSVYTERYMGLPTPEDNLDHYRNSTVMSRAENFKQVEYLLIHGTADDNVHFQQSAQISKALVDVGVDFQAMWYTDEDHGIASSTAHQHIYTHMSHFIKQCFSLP

[3] = biological target: T2, Voltage-gated inwardly rectifying potassium channel KCNH2 (Homo sapiens, UniProt Q12809); assay: Inhibition of hERG by thallium flux assay; type: toxicity
[4] = Blood glucose AUC in ICR mouse at 15 mg/kg; conditions: in vivo
[5] = Half life in ICR mouse at 15 mg/kg; type: ADME, organism-based; conditions: in vivo
[6] = biological target: T2, Voltage-gated inwardly rectifying potassium channel KCNH2; assay: Inhibition of hERG channel by patch clamp assay; type: toxicity
[7] = Oral bioavailability in ICR mouse at 15 mg/kg; type: ADME, organism-based; conditions: in vivo
Mus musculus [8] = assay: Hypoglycemic activity in mouse assessed as reduction in blood glucose level at 10 mg/kg measured after 120 mins; type: ADME, organism-based; design: scale not given: the % may be the effect or the level left; conditions: in vivo, 2 h
Dipeptidyl peptidase 8 [9] = biological target: T3, Dipeptidyl peptidase 8 (Homo sapiens, UniProt Q6V1X1); assay: Inhibition of human recombinant DPP-8
[10] = Cytotoxicity against human L02 cells assessed as cell viability after 72 hrs by MTT assay; type: toxicity, cell-based; conditions: read-out: Activity
[11] = Clearance in mouse at 3 to 10 mg/kg, iv; type: ADME, organism-based; conditions: in vivo, dose 3-10 mg/kg
[12] = Metabolic stability in rat plasma assessed as parent compound remaining; type: ADME, cell-free
[13] = Metabolic stability in rat liver microsome assessed as parent compound remaining; type: ADME; conditions: microsomes
[14] = Half life in mouse at 3 to 10 mg/kg, iv; type: ADME, organism-based; conditions: in vivo, dose 3-10 mg/kg
[15] = Biovailability in mouse at 3 to 10 mg/kg, iv; type: ADME, organism-based; conditions: in vivo, dose 3-10 mg/kg
Dipeptidyl peptidase 9 [16] = biological target: T4, Dipeptidyl peptidase 9 (Homo sapiens, UniProt Q86TI2); assay: Inhibition of human recombinant DPP-9
Dipeptidyl peptidase 4 [17] = biological target: T1, Dipeptidyl peptidase 4; type: cell-based, Caco-2
Target sequence in this assay (P27487 whole entry): as the sequence (P27487 whole entry, looked up) above

Mus musculus [18] = assay: Hypoglycemic activity in C57BL/6J mouse assessed as reduction in blood glucose level at 10 mg/kg, po measured at 20 to 80 mins by OGTT analysis; type: functional; design: scale not given: the % may be the effect or the level left; conditions: time 20-80 min
Rattus norvegicus [19] = assay: Antihyperglycemic activity in STZ-induced diabetic rat model assessed as reduction in blood glucose level at 100 mg/kg, po measured upto 24 hrs; type: functional; design: scale not given: the % may be the effect or the level left
Rattus norvegicus [20] = assay: Anti-hyperglycemic activity in STZ-induced diabetic rat model assessed as improvement in glucose tolerance level at 30 mg/kg, po measured on day 15; type: functional
Rattus norvegicus [21] = assay: Anti-hyperglycemic activity in STZ-induced diabetic rat model assessed as improvement in glucose tolerance level at 30 mg/kg, po measured on day 10; type: functional; conditions: time 10 day
Mus musculus [22] = assay: Antidiabetic activity in ICR mouse assessed as decrease in AUC of glucose at 3 mg/kg, po; type: functional; design: scale not given: the % may be the effect or the level left
Dipeptidyl peptidase 4 [23] = biological target: T1, Dipeptidyl peptidase 4; remark: listed apart in the source
Target sequence in this assay (P27487 whole entry): as the sequence (P27487 whole entry, looked up) above

Mus musculus [24] = assay: Antidiabetic activity in ICR mouse assessed as decrease in AUC of glucose at 10 mg/kg, po; type: functional; design: scale not given: the % may be the effect or the level left
Dipeptidyl peptidase 9 [25] = biological target: T4, Dipeptidyl peptidase 9; assay: Inhibition of DPP-9 (unknown origin)
Dipeptidyl peptidase 8 [26] = biological target: T3, Dipeptidyl peptidase 8; assay: Inhibition of DPP-8 (unknown origin)
Mus musculus [27] = assay: Hypoglycemic activity in C57BL/6J mouse assessed as reduction in blood glucose level at 3 mg/kg, iv measured for 180 mins; type: ADME, organism-based; design: scale not given: the % may be the effect or the level left; conditions: in vivo, 3 h
Mus musculus [28] = assay: Antidiabetic activity in C57BL/6J mouse assessed as decrease in AUC of glucose at 3 mg/kg, po; type: functional; design: scale not given: the % may be the effect or the level left
[29] = Antioxidant activity assessed as DPPH radical scavenging activity; type: functional
[30] = Aqueous stability in phosphate buffer at pH 7.4 assessed as half life; type: physicochemical
Mus musculus [31] = assay: Hypoglycemic activity in KKAy mouse assessed as reduction in blood glucose level at 30 mg/kg; type: ADME, organism-based; design: scale not given: the % may be the effect or the level left; conditions: in vivo
Mus musculus [32] = assay: Hypoglycemic activity in KKAy mouse assessed as reduction in blood glucose level at 3 mg/kg; type: ADME, organism-based; design: scale not given: the % may be the effect or the level left; conditions: in vivo
Mus musculus [33] = assay: Hypoglycemic activity in ICR mouse assessed as reduction in blood glucose level at 3 mg/kg; type: ADME, organism-based; design: scale not given: the % may be the effect or the level left; conditions: in vivo
[34] = AUC in C57BL/6J mouse at 20 mg/kg, po; type: ADME, organism-based; design: dose 20 mg/kg, route po; conditions: in vivo
Mus musculus [35] = assay: Hypoglycemic activity in ICR mouse assessed as reduction in blood glucose level at 10 mg/kg; type: ADME, organism-based; design: scale not given: the % may be the effect or the level left; conditions: in vivo

T2 sequence (Q12809 whole entry): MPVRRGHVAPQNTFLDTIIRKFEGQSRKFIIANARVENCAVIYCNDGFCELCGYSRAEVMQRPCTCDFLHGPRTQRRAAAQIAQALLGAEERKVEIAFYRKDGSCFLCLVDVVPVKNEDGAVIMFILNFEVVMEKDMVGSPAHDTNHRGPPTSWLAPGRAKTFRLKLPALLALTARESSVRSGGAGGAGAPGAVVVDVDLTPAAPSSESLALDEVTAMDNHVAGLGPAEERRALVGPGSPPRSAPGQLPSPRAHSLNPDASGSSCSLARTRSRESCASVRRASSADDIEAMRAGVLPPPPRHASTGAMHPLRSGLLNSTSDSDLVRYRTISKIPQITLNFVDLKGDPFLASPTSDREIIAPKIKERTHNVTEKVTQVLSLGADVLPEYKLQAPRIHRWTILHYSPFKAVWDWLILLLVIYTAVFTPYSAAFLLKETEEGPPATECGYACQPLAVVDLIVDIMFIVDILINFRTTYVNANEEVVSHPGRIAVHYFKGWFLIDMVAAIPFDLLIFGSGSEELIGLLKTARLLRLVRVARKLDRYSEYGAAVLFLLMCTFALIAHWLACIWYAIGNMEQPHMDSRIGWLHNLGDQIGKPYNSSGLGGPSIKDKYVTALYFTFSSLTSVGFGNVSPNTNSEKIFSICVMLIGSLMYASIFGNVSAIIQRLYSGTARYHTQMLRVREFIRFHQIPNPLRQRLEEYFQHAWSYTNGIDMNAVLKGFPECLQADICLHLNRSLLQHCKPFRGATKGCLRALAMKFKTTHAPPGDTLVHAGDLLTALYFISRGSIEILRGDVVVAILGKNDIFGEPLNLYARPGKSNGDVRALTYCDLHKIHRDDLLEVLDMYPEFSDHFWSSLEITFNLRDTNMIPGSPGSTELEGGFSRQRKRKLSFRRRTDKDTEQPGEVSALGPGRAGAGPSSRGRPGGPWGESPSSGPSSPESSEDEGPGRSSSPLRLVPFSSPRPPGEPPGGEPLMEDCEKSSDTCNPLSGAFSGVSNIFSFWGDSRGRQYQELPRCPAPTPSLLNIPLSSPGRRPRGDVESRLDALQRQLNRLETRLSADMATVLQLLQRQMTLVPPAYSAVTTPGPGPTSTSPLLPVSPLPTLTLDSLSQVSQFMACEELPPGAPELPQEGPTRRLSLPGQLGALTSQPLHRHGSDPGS
T3 sequence (Q6V1X1 whole entry): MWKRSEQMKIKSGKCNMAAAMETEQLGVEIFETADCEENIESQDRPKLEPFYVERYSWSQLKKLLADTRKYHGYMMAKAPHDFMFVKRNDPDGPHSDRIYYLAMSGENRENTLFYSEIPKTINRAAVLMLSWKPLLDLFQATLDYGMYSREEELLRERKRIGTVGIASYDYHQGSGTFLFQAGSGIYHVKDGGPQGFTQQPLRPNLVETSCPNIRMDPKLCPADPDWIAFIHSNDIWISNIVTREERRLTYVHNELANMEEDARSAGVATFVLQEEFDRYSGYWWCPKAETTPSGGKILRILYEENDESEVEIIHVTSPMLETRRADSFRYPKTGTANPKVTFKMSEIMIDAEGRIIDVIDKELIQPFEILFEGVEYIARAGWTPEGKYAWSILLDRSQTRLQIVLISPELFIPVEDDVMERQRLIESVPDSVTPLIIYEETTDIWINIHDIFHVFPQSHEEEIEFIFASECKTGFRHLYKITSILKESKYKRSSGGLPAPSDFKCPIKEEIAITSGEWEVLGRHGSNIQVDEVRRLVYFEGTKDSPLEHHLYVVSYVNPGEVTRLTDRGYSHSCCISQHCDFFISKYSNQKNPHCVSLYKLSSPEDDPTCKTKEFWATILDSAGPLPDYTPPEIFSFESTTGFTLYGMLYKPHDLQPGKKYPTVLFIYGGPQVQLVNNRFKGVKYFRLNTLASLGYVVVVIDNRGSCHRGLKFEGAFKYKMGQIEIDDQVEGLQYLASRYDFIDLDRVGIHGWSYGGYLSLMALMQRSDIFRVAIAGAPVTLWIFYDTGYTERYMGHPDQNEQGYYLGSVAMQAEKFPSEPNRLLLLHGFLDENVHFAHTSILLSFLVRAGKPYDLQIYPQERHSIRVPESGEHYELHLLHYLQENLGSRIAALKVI
T4 sequence (Q86TI2 whole entry): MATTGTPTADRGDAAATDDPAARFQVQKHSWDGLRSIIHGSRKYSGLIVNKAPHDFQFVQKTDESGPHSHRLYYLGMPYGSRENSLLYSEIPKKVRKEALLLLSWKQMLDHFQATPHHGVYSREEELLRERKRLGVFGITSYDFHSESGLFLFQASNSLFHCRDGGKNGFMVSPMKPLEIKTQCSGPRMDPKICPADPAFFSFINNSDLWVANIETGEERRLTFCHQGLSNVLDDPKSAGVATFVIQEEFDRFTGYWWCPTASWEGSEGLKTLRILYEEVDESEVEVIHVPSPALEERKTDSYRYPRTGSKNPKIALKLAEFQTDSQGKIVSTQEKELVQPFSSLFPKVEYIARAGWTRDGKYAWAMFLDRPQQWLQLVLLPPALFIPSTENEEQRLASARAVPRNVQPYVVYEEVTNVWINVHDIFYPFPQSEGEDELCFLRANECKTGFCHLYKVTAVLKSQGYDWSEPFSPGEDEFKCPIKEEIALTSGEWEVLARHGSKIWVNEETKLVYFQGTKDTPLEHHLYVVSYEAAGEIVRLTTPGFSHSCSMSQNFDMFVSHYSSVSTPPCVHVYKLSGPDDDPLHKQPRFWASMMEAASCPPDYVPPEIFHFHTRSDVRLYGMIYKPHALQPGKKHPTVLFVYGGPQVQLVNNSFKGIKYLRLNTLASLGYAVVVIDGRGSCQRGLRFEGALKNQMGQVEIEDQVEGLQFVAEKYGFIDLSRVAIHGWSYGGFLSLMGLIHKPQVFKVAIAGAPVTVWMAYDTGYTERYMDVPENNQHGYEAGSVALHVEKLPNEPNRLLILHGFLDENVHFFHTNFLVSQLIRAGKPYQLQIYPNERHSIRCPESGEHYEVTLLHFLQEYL

SMILES: N[C@@H](CC(=O)N1CCC[C@H]1CNC(=O)c1cc(S(N)(=O)=O)c(F)cc1F)[C@H]1CCc2cc(F)c(F)cc21
IC50 (Dipeptidyl peptidase 4 [17]): 0.00087 µM
Activity (Mus musculus [18]): 12%

SMILES: O=C(CN1CCN(c2ccnc3cc(Cl)ccc23)CC1)N1CCCC1
Activity (Rattus norvegicus [19]): 25.5%
Activity (Rattus norvegicus [20]): 26.4%
Activity (Rattus norvegicus [21]): 14.6%

SMILES: CC#CCn1c(N2CCC[C@@H](N)C2)cc(=O)n(Cc2cn(CCC(=O)OC)nn2)c1=O
Activity (Mus musculus [22]): 31.4%
IC50 (Dipeptidyl peptidase 4 [23]): 0.064 µM
Activity (Mus musculus [24]): 40.4%

SMILES: Cc1nc2cc(-c3ccccc3)nn2c(-c2ccc(Cl)cc2Cl)c1CO
Ki (Dipeptidyl peptidase 9 [25]): > 30 µM
Ki (Dipeptidyl peptidase 8 [26]): > 30 µM

SMILES: N[C@@H](CC(=O)N1CCn2c(nnc2C(F)(F)F)C1)Cc1cc(F)c(F)cc1F [SITAGLIPTIN]
Activity (Rattus norvegicus [19]): 31.9%
Activity (Mus musculus [27]): 27.8%
Activity (Mus musculus [28]): 17.9%

SMILES: CN1CCN(S(=O)(=O)c2cccc(C(=O)NC[C@@H]3CCCN3C(=O)C[C@H](N)[C@H]3CCc4cc(F)c(F)cc43)c2)CC1
IC50 (Dipeptidyl peptidase 4 [17]): 0.0011 µM
Activity (Mus musculus [18]): 34%

SMILES: CC#CCn1c(N2CCC[C@@H](N)C2)cc(=O)n(Cc2cn(CCC(=O)O)nn2)c1=O
Activity (Mus musculus [22]): 21.2%
IC50 (Dipeptidyl peptidase 4 [23]): 0.0124 µM

SMILES: O=C1O[C@H]([C@@H](O)CO)C(O)=C1O [ASCORBIC ACID]
IC50 [29]: 34.69 µg/mL (≈ 197 µM)

SMILES: O=C(CN1CCN(c2cccc(Cl)c2)CC1)N1CCCCC1
Activity (Rattus norvegicus [19]): 24.6%
Activity (Rattus norvegicus [20]): 19.4%
Activity (Rattus norvegicus [21]): 11.8%

Further lines, with some results ahead:

bioavailability [1]: 76%
IC5 (Dipeptidyl peptidase 4 [2]): 0.18 nM
SMILES: Cl.N[C@@H](CC(=O)N1CCn2c(nnc2C(F)(F)F)[C@H]1c1ccc(F)cc1)Cc1cc(F)c(F)cc1F

glucose AUC [4]: 847 mmol/L/min
half-life [5]: 2.74 h
bioavailability [7]: 22.8%
SMILES: N#C[C@@H]1[C@@H]2CCC[C@@H]2CN1C(=O)[C@@H](N)Cc1cc(F)c(F)cc1F
IC5 ([3]; human): 55.3 µM
IC50 [6]: > 40 µM

Activity (Mus musculus [8]): 16.4%
IC50 (Dipeptidyl peptidase 8 [9]): > 100 µM
clearance [11]: 5.83 mL/min/kg
Stability [12]: 99.38%
Stability [13]: 101.83%
half-life [14]: 11.1 h
bioavailability [15]: 27.3%
IC50 (Dipeptidyl peptidase 9 [16]): > 100 µM
SMILES: CC#CCn1c(N2CCC[C@@H](N)C2)cc(=O)n(Cc2ccc(Cl)c(C(=O)N(C)C)c2)c1=O
viability at 72 h [10]: 100%

glucose AUC [4]: 795 mmol/L/min
half-life [5]: 2.03 h
bioavailability [7]: 53.2%
SMILES: N#C[C@@H]1C[C@H](F)CN1C(=O)[C@@H](N)Cc1cc(Cl)c(Cl)cc1Cl
IC50 [3]: 97.7 µM
IC50 [6]: > 40 µM

half-life [30]: 168 h
SMILES: CO[C@@H]1CCCN1C(=O)CC(C)(C)[C@H](N)C(=O)N1CCC[C@H]1C#N.O=C(O)C(F)(F)F

Activity (Mus musculus [31]): 52.2%
Activity (Mus musculus [32]): 61.9%
SMILES: N#C[C@@H]1CCCN1C(=O)CNC1C[C@H]2CC(O)C[C@H]2C1 (stereo partly drawn)

Activity (Mus musculus [33]): 33.48%
AUC [34]: 21500 ng·h/mL
Activity (Mus musculus [35]): 33.51%
SMILES: N#Cc1ccc(NCCNCC(=O)N2CCC[C@H]2C#N)nc1
